Key:
[1] = tested on: U2OS; assay: Antiproliferative activity against human U2OS cells after 48 hrs by MTT assay relative to control; type: functional, cell-based
[2] = Selectivity ratio of IC50 for human A549 cells to IC50 for human MDA-MB-231 cells; type: functional
[3] = Selectivity ratio of IC50 for human HCT116 cells to IC50 for human MDA-MB-231 cells; type: functional
[4] = tested on: MDA-MB-231; assay: Antiproliferative activity against human MDA-MB-231 cells after 48 hrs by MTT assay relative to control; type: functional, cell-based; conditions: MDA-MB-231, 48 h
[5] = tested on: HCT-116; assay: Antiproliferative activity against human HCT116 cells after 48 hrs by MTT assay relative to control; type: functional, cell-based; conditions: HCT-116, 48 h
[6] = species: Homo sapiens; assay: Inhibition of MDR in human MCF7/ADR cells assessed as potentiation of adriamycin-induced antiproliferative activity by measuring fold reduction in adriamycin IC50 at 10 uM after 48 hrs by MTT assay; type: cell-based
[7] = tested on: HCT-116; assay: Growth inhibition of human HCT116 cells at 5 uM after 24 hrs by MTT assay relative to control; type: functional; conditions: HCT-116, 24 h, read-out: GI
[8] = tested on: MCF7; assay: Cytotoxicity against ADR-sensitive human MCF7 cells assessed as inhibition of cell viability after 48 hrs by MTT assay; type: cell-based; conditions: MCF7, 48 h
[9] = Cytotoxicity against ADR-sensitive human MCF7 cells assessed as inhibition of cell viability at 10 uM after 48 hrs by MTT assay relative to control; type: cell-based; conditions: read-out: INH
[10] = target: T1, Glutathione S-transferase P (Homo sapiens, UniProt P09211); assay: Prodrug activation in human HCT116 cells assessed as GST-Pi-mediated NO release at 5 uM after 24 hrs in presence of NO scavenger carboxy-PTIO by nitrate reductase assay; type: cell-based
[11] = target: T1, Glutathione S-transferase P; assay: Prodrug activation in human HCT116 cells assessed as GST-Pi-mediated NO release at 5 uM after 24 hrs in presence of GST-Pi inhibitor etacrynic acid by nitrate reductase assay; type: cell-based
[12] = Selectivity ratio of IC50 for human U2OS cells to IC50 for human MDA-MB-231 cells; type: functional
[13] = tested on: HCT-116; assay: Cytotoxicity against human HCT116 cells overexpressing GST-Pi assessed as inhibition of cell viability at 10 uM after 48 hrs by MTT assay relative to control; type: functional; conditions: HCT-116, 48 h
[14] = Selectivity ratio of IC50 for human MCF10A cells to IC50 for human MDA-MB-231 cells; type: toxicity; conditions: MCF10A cells versus MDA-MB-231 cells, read-out: Ratio IC50
[15] = tested on: A549; assay: Antiproliferative activity against human A549 cells after 48 hrs by MTT assay relative to control; type: functional, cell-based; conditions: A549, 48 h
[16] = tested on: HCT-116; assay: Growth inhibition of human HCT116 cells at 5 uM after 24 hrs in presence of GST-Pi inhibitor etacrynic acid by MTT assay relative to control; type: functional; conditions: HCT-116, 24 h, read-out: GI
[17] = tested on: MCF-10A; assay: Antiproliferative activity against human MCF10A cells after 48 hrs by MTT assay relative to control; type: cell-based
[18] = Glutathione reactivity in pH 7.4 PBS buffer assessed as parent compound remaining at 0.1 mM after 1 hr in presence of 2 mM GSH by HPLC analysis; type: physicochemical; conditions: PBS buffer with 2 mM glutathione (GSH), read-out: Stability
[19] = target: T1, Glutathione S-transferase P; assay: Prodrug activation in human HCT116 cells assessed as GST-Pi-mediated NO release at 5 uM after 24 hrs by nitrate reductase assay; type: cell-based
[20] = tested on: HCT-116; assay: Growth inhibition of human HCT116 cells at 5 uM after 24 hrs in presence of NO scavenger carboxy-PTIO by MTT assay relative to control; type: functional; conditions: HCT-116, 24 h, read-out: GI
[21] = target: T1, Glutathione S-transferase P; assay: Prodrug activation in human HCT116 cells assessed as GST-Pi-mediated NO release at 5 uM by nitrate reductase assay; type: cell-based

T1 sequence (P09211 whole entry): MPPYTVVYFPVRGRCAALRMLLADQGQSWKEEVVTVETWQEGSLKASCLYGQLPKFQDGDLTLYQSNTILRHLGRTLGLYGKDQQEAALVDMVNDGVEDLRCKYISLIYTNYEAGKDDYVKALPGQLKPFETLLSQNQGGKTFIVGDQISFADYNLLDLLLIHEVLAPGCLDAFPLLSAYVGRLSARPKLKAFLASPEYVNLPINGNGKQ

IC50 [1] [µM]	IC50 [4] [µM]	IC50 [5] [µM]	Drug metabolism [10]	Drug metabolism [11]	IC50 [15] [µM]	Drug metabolism [19]	SMILES	Ratio IC50 [2]	Ratio IC50 [3]	fold change (FC) [6]	inhibition of growth at 5 µM [7] [%]	IC50 [8] [µM]	cytotoxicity at 48 h, 10 µM [9] [%]	Ratio IC50 [12]	inhibition at 10 µM [13] [%]	selectivity ratio [14]	IC50 [17] [µM]	other results
7.49	5.68	4.14	Metabolite_Notdetected	Metabolite_Notdetected	4.7		COc1ccc(C2CC(c3cccc(Oc4cc(O/N=[N+](\[O-])N5CCCCC5)c([N+](=O)[O-])cc4[N+](=O)[O-])c3)=NN2C(C)=O)cc1 (stereo not drawn)	1.5	0.7	61.9	67.9	27.6	15.1	1.7	80.4	8.2	46.9	inhibition of growth at 5 µM [16]: 14.8%
7.64	0.94	1.06	Metabolite_Notdetected	Metabolite_Notdetected	1.15	Metabolite_Detected	COc1cc(C2CC(c3cccc(Oc4cc(O/N=[N+](\[O-])N5CCCCC5)c([N+](=O)[O-])cc4[N+](=O)[O-])c3)=NN2C(C)=O)cc(OC)c1OC (stereo not drawn)	1.2	1.1	75.3	74.9	17.7	26.4	8.1	80.8	11.2	10.5	remaining at 1 h, 100 µM [18]: 80%; inhibition of growth at 5 µM [20]: 7.1%
2.19	4.4	1.86	Metabolite_Notdetected	Metabolite_Notdetected	1.46	Metabolite_Detected	CCCCOc1ccc(C2CC(c3cccc(Oc4cc(O/N=[N+](\[O-])N5CCOCC5)c([N+](=O)[O-])cc4[N+](=O)[O-])c3)=NN2C(C)=O)cc1OC (stereo not drawn)	0.3	0.4	63		19.2	23.6	0.5	75.7	3.4	15.2	Drug metabolism [21]: Dose-dependent effect
